# Assay results published in ChEMBL document CHEMBL3046519, “Synthesis and biological evaluation of some pyrazole derivatives as anti-inflammatoryantibacterial agents” (2012).
# The source made the active and inactive calls. The rule behind the calls is not given here.
# Experiments:
# Staphylococcus aureus [1] = assay: Antibacterial activity against Staphylococcus aureus MTCC 96 at 4 mg/ml after 24 hr by agar well diffusion method; assay type: functional; conditions: MTCC 96, 24 h, read-out: DIZ
# Bacillus subtilis [2] = assay: Antibacterial activity against Bacillus subtilis MTCC 121 at 4 mg/ml after 24 hr by agar well diffusion method; assay type: functional; conditions: MTCC 121, 24 h, read-out: DIZ
# Rattus norvegicus [3] = assay: Anti-inflammatory activity in Rattus norvegicus Wistar albino (rat) assessed as inhibition of carrageenan-induced paw edema at 50 mg/kg, po administered for 30 min prior to carrageenan challenge measured at 1 hr relative to control; assay type: functional
# Bacillus subtilis [4] = assay: Antibacterial activity against Bacillus subtilis MTCC 121 by NCCLS broth macrodilution method; assay type: functional
# Pseudomonas aeruginosa = conditions: MTCC 741, 4 mg/ml
# Description: Antibacterial activity against Pseudomonas aeruginosa MTCC 741 at 4 mg/ml after 24 hr by agar well diffusion method
# Rattus norvegicus [5] = assay: Anti-inflammatory activity in Rattus norvegicus Wistar albino (rat) assessed as inhibition of carrageenan-induced paw edema at 50 mg/kg, po administered for 30 min prior to carrageenan challenge measured at 3 hr relative to control; assay type: functional
# Rattus norvegicus [6] = assay: Anti-inflammatory activity in Rattus norvegicus Wistar albino (rat) assessed as inhibition of carrageenan-induced paw edema at 50 mg/kg, po administered for 30 min prior to carrageenan challenge measured at 4 hr relative to control; assay type: functional
# Staphylococcus aureus [7] = assay: Antibacterial activity against Staphylococcus aureus MTCC 96 by NCCLS broth macrodilution method; assay type: functional
# Rattus norvegicus [8] = assay: Anti-inflammatory activity in Rattus norvegicus Wistar albino (rat) assessed as inhibition of carrageenan-induced paw edema at 50 mg/kg, po administered for 30 min prior to carrageenan challenge measured at 2 hr relative to control; assay type: functional
# Escherichia coli = assay: Antibacterial activity against Escherichia coli MTCC 1652 at 4 mg/ml after 24 hr by agar well diffusion method; assay type: functional, organism-based
smiles,measurement,setting,value
COc1ccc(-c2nn(-c3ccc(S(N)(=O)=O)cc3)cc2/C=N/Nc2nc(-c3ccccc3)cs2)cc1,zone of inhibition at 4000 µg/mL,Staphylococcus aureus [1],15.3 mm
same,zone of inhibition at 4000 µg/mL,Bacillus subtilis [2],15.6 mm
same,inhibition in vivo at 50 mg/kg,Rattus norvegicus [3],32%
same,MIC,Bacillus subtilis [4],> 128 µg/mL
same,DIZ,Pseudomonas aeruginosa,inactive
same,inhibition in vivo at 50 mg/kg,Rattus norvegicus [5],61%
same,inhibition in vivo at 50 mg/kg,Rattus norvegicus [6],61%
same,MIC,Staphylococcus aureus [7],> 128 µg/mL
same,inhibition in vivo at 50 mg/kg,Rattus norvegicus [8],65%
same,diameter of the inhibition zone (DIZ),Escherichia coli,inactive
COc1ccc(-c2nn(-c3ccc(S(N)(=O)=O)cc3)cc2/C=N/NC(N)=S)cc1,zone of inhibition at 4000 µg/mL,Staphylococcus aureus [1],13.6 mm
same,zone of inhibition at 4000 µg/mL,Bacillus subtilis [2],15 mm
same,inhibition in vivo at 50 mg/kg,Rattus norvegicus [3],28%
same,MIC,Bacillus subtilis [4],> 128 µg/mL
same,DIZ,Pseudomonas aeruginosa,inactive
same,inhibition in vivo at 50 mg/kg,Rattus norvegicus [5],59%
same,inhibition in vivo at 50 mg/kg,Rattus norvegicus [6],71%
same,MIC,Staphylococcus aureus [7],> 128 µg/mL
same,inhibition in vivo at 50 mg/kg,Rattus norvegicus [8],76%
same,diameter of the inhibition zone (DIZ),Escherichia coli,inactive
Cc1ccc(-c2csc(N/N=C/c3cn(-c4ccc(S(N)(=O)=O)cc4)nc3-c3ccc(F)cc3)n2)cc1,zone of inhibition at 4000 µg/mL,Staphylococcus aureus [1],15.6 mm
same,zone of inhibition at 4000 µg/mL,Bacillus subtilis [2],14.3 mm
same,inhibition in vivo at 50 mg/kg,Rattus norvegicus [3],33%
same,MIC,Bacillus subtilis [4],> 128 µg/mL
same,DIZ,Pseudomonas aeruginosa,inactive
same,inhibition in vivo at 50 mg/kg,Rattus norvegicus [5],73%
same,inhibition in vivo at 50 mg/kg,Rattus norvegicus [6],70%
same,MIC,Staphylococcus aureus [7],> 128 µg/mL
same,inhibition in vivo at 50 mg/kg,Rattus norvegicus [8],72%
same,diameter of the inhibition zone (DIZ),Escherichia coli,inactive
Cc1ccc(-c2nn(-c3ccc(S(N)(=O)=O)cc3)cc2/C=N/Nc2nc(-c3ccccc3)cs2)cc1,zone of inhibition at 4000 µg/mL,Staphylococcus aureus [1],15.3 mm
same,zone of inhibition at 4000 µg/mL,Bacillus subtilis [2],13.6 mm
same,inhibition in vivo at 50 mg/kg,Rattus norvegicus [3],33%
same,MIC,Bacillus subtilis [4],> 128 µg/mL
same,DIZ,Pseudomonas aeruginosa,inactive
same,inhibition in vivo at 50 mg/kg,Rattus norvegicus [5],75%
same,inhibition in vivo at 50 mg/kg,Rattus norvegicus [6],56%
same,MIC,Staphylococcus aureus [7],> 128 µg/mL
same,inhibition in vivo at 50 mg/kg,Rattus norvegicus [8],60%
same,diameter of the inhibition zone (DIZ),Escherichia coli,inactive
Cc1ccc(-c2csc(N/N=C/c3cn(-c4ccc(S(N)(=O)=O)cc4)nc3-c3ccccc3)n2)cc1,zone of inhibition at 4000 µg/mL,Staphylococcus aureus [1],15 mm
same,zone of inhibition at 4000 µg/mL,Bacillus subtilis [2],14.6 mm
same,inhibition in vivo at 50 mg/kg,Rattus norvegicus [3],28%
same,MIC,Bacillus subtilis [4],> 128 µg/mL
same,DIZ,Pseudomonas aeruginosa,inactive
same,inhibition in vivo at 50 mg/kg,Rattus norvegicus [5],57%
same,inhibition in vivo at 50 mg/kg,Rattus norvegicus [6],60%
same,MIC,Staphylococcus aureus [7],> 128 µg/mL
same,inhibition in vivo at 50 mg/kg,Rattus norvegicus [8],65%
same,diameter of the inhibition zone (DIZ),Escherichia coli,inactive
COc1ccc(-c2nn(-c3ccc(S(N)(=O)=O)cc3)cc2/C=N/Nc2nc(-c3ccc(Cl)cc3)cs2)cc1,zone of inhibition at 4000 µg/mL,Staphylococcus aureus [1],13.6 mm
same,zone of inhibition at 4000 µg/mL,Bacillus subtilis [2],14.3 mm
same,inhibition in vivo at 50 mg/kg,Rattus norvegicus [3],32%
same,MIC,Bacillus subtilis [4],> 128 µg/mL
same,DIZ,Pseudomonas aeruginosa,inactive
same,inhibition in vivo at 50 mg/kg,Rattus norvegicus [5],69%
same,inhibition in vivo at 50 mg/kg,Rattus norvegicus [6],71%
same,MIC,Staphylococcus aureus [7],> 128 µg/mL
same,inhibition in vivo at 50 mg/kg,Rattus norvegicus [8],66%
same,diameter of the inhibition zone (DIZ),Escherichia coli,inactive
Cc1ccc(-c2nn(-c3ccc(S(N)(=O)=O)cc3)cc2/C=N/Nc2nc(-c3ccc(Cl)cc3)cs2)cc1,zone of inhibition at 4000 µg/mL,Staphylococcus aureus [1],14.6 mm
same,zone of inhibition at 4000 µg/mL,Bacillus subtilis [2],15.3 mm
same,inhibition in vivo at 50 mg/kg,Rattus norvegicus [3],32%
same,MIC,Bacillus subtilis [4],> 128 µg/mL
same,DIZ,Pseudomonas aeruginosa,inactive
same,inhibition in vivo at 50 mg/kg,Rattus norvegicus [5],60%
same,inhibition in vivo at 50 mg/kg,Rattus norvegicus [6],57%
same,MIC,Staphylococcus aureus [7],> 128 µg/mL
same,inhibition in vivo at 50 mg/kg,Rattus norvegicus [8],60%
same,diameter of the inhibition zone (DIZ),Escherichia coli,inactive
COc1ccc(-c2nn(-c3ccc(S(N)(=O)=O)cc3)cc2/C=N/Nc2nc(-c3ccc(C)cc3)cs2)cc1,zone of inhibition at 4000 µg/mL,Staphylococcus aureus [1],20.6 mm
same,zone of inhibition at 4000 µg/mL,Bacillus subtilis [2],17.3 mm
same,inhibition in vivo at 50 mg/kg,Rattus norvegicus [3],37%
same,MIC,Bacillus subtilis [4],128 µg/mL
same,DIZ,Pseudomonas aeruginosa,inactive
same,inhibition in vivo at 50 mg/kg,Rattus norvegicus [5],72%
same,inhibition in vivo at 50 mg/kg,Rattus norvegicus [6],70%
same,MIC,Staphylococcus aureus [7],64 µg/mL
same,inhibition in vivo at 50 mg/kg,Rattus norvegicus [8],65%
same,diameter of the inhibition zone (DIZ),Escherichia coli,inactive
NS(=O)(=O)c1ccc(-n2cc(/C=N/Nc3nc(-c4ccccc4)cs3)c(-c3ccc(Cl)cc3)n2)cc1,zone of inhibition at 4000 µg/mL,Staphylococcus aureus [1],13.3 mm
same,zone of inhibition at 4000 µg/mL,Bacillus subtilis [2],15.6 mm
same,inhibition in vivo at 50 mg/kg,Rattus norvegicus [3],22%
same,MIC,Bacillus subtilis [4],> 128 µg/mL
same,DIZ,Pseudomonas aeruginosa,inactive
same,inhibition in vivo at 50 mg/kg,Rattus norvegicus [5],57%
same,inhibition in vivo at 50 mg/kg,Rattus norvegicus [6],56%
same,MIC,Staphylococcus aureus [7],> 128 µg/mL
same,inhibition in vivo at 50 mg/kg,Rattus norvegicus [8],62%
same,diameter of the inhibition zone (DIZ),Escherichia coli,inactive
Cc1ccc(-c2csc(N/N=C/c3cn(-c4ccc(S(N)(=O)=O)cc4)nc3-c3ccc(Cl)cc3)n2)cc1,zone of inhibition at 4000 µg/mL,Staphylococcus aureus [1],15.3 mm
same,zone of inhibition at 4000 µg/mL,Bacillus subtilis [2],14.6 mm
same,inhibition in vivo at 50 mg/kg,Rattus norvegicus [3],5%
same,MIC,Bacillus subtilis [4],> 128 µg/mL
same,DIZ,Pseudomonas aeruginosa,inactive
same,inhibition in vivo at 50 mg/kg,Rattus norvegicus [5],70%
same,inhibition in vivo at 50 mg/kg,Rattus norvegicus [6],73%
same,MIC,Staphylococcus aureus [7],> 128 µg/mL
same,inhibition in vivo at 50 mg/kg,Rattus norvegicus [8],61%
same,diameter of the inhibition zone (DIZ),Escherichia coli,inactive
NC(=S)N/N=C/c1cn(-c2ccc(S(N)(=O)=O)cc2)nc1-c1ccc(F)cc1,zone of inhibition at 4000 µg/mL,Staphylococcus aureus [1],15.6 mm
same,zone of inhibition at 4000 µg/mL,Bacillus subtilis [2],15.3 mm
same,inhibition in vivo at 50 mg/kg,Rattus norvegicus [3],24%
same,MIC,Bacillus subtilis [4],> 128 µg/mL
same,DIZ,Pseudomonas aeruginosa,inactive
same,inhibition in vivo at 50 mg/kg,Rattus norvegicus [5],73%
same,inhibition in vivo at 50 mg/kg,Rattus norvegicus [6],75%
same,MIC,Staphylococcus aureus [7],> 128 µg/mL
same,inhibition in vivo at 50 mg/kg,Rattus norvegicus [8],75%
same,diameter of the inhibition zone (DIZ),Escherichia coli,inactive
NS(=O)(=O)c1ccc(-n2cc(/C=N/Nc3nc(-c4ccc(Cl)cc4)cs3)c(-c3ccccc3)n2)cc1,zone of inhibition at 4000 µg/mL,Staphylococcus aureus [1],13.6 mm
same,zone of inhibition at 4000 µg/mL,Bacillus subtilis [2],15.3 mm
same,inhibition in vivo at 50 mg/kg,Rattus norvegicus [3],32%
same,MIC,Bacillus subtilis [4],> 128 µg/mL
same,DIZ,Pseudomonas aeruginosa,inactive
same,inhibition in vivo at 50 mg/kg,Rattus norvegicus [5],75%
same,inhibition in vivo at 50 mg/kg,Rattus norvegicus [6],70%
same,MIC,Staphylococcus aureus [7],> 128 µg/mL
same,inhibition in vivo at 50 mg/kg,Rattus norvegicus [8],72%
same,diameter of the inhibition zone (DIZ),Escherichia coli,inactive
NC(=S)N/N=C/c1cn(-c2ccc(S(N)(=O)=O)cc2)nc1-c1ccccc1,zone of inhibition at 4000 µg/mL,Staphylococcus aureus [1],17 mm
same,zone of inhibition at 4000 µg/mL,Bacillus subtilis [2],19.6 mm
same,inhibition in vivo at 50 mg/kg,Rattus norvegicus [3],35%
same,MIC,Bacillus subtilis [4],64 µg/mL
same,DIZ,Pseudomonas aeruginosa,inactive
same,inhibition in vivo at 50 mg/kg,Rattus norvegicus [5],67%
same,inhibition in vivo at 50 mg/kg,Rattus norvegicus [6],63%
same,MIC,Staphylococcus aureus [7],128 µg/mL
same,inhibition in vivo at 50 mg/kg,Rattus norvegicus [8],59%
same,diameter of the inhibition zone (DIZ),Escherichia coli,inactive
NS(=O)(=O)c1ccc(-n2cc(/C=N/Nc3nc(-c4ccccc4)cs3)c(-c3ccc(F)cc3)n2)cc1,zone of inhibition at 4000 µg/mL,Staphylococcus aureus [1],14.6 mm
same,zone of inhibition at 4000 µg/mL,Bacillus subtilis [2],16.6 mm
same,inhibition in vivo at 50 mg/kg,Rattus norvegicus [3],11%
same,MIC,Bacillus subtilis [4],> 128 µg/mL
same,DIZ,Pseudomonas aeruginosa,inactive
same,inhibition in vivo at 50 mg/kg,Rattus norvegicus [5],65%
same,inhibition in vivo at 50 mg/kg,Rattus norvegicus [6],56%
same,MIC,Staphylococcus aureus [7],> 128 µg/mL
same,inhibition in vivo at 50 mg/kg,Rattus norvegicus [8],60%
same,diameter of the inhibition zone (DIZ),Escherichia coli,inactive
Cc1ccc(-c2nn(-c3ccc(S(N)(=O)=O)cc3)cc2/C=N/NC(N)=S)cc1,zone of inhibition at 4000 µg/mL,Staphylococcus aureus [1],16.3 mm
same,zone of inhibition at 4000 µg/mL,Bacillus subtilis [2],14.3 mm
same,inhibition in vivo at 50 mg/kg,Rattus norvegicus [3],32%
same,MIC,Bacillus subtilis [4],> 128 µg/mL
same,DIZ,Pseudomonas aeruginosa,inactive
same,inhibition in vivo at 50 mg/kg,Rattus norvegicus [5],75%
same,inhibition in vivo at 50 mg/kg,Rattus norvegicus [6],70%
same,MIC,Staphylococcus aureus [7],> 128 µg/mL
same,inhibition in vivo at 50 mg/kg,Rattus norvegicus [8],72%
same,diameter of the inhibition zone (DIZ),Escherichia coli,inactive
NC(=S)N/N=C/c1cn(-c2ccc(S(N)(=O)=O)cc2)nc1-c1ccc(Cl)cc1,zone of inhibition at 4000 µg/mL,Staphylococcus aureus [1],14 mm
same,zone of inhibition at 4000 µg/mL,Bacillus subtilis [2],13.6 mm
same,inhibition in vivo at 50 mg/kg,Rattus norvegicus [3],33%
same,MIC,Bacillus subtilis [4],> 128 µg/mL
same,DIZ,Pseudomonas aeruginosa,inactive
same,inhibition in vivo at 50 mg/kg,Rattus norvegicus [5],77%
same,inhibition in vivo at 50 mg/kg,Rattus norvegicus [6],71%
same,MIC,Staphylococcus aureus [7],> 128 µg/mL
same,inhibition in vivo at 50 mg/kg,Rattus norvegicus [8],76%
same,diameter of the inhibition zone (DIZ),Escherichia coli,inactive
NS(=O)(=O)c1ccc(-n2cc(/C=N/Nc3nc(-c4ccc(Cl)cc4)cs3)c(-c3ccc(F)cc3)n2)cc1,zone of inhibition at 4000 µg/mL,Staphylococcus aureus [1],14.3 mm
same,zone of inhibition at 4000 µg/mL,Bacillus subtilis [2],13.3 mm
same,inhibition in vivo at 50 mg/kg,Rattus norvegicus [3],35%
same,MIC,Bacillus subtilis [4],> 128 µg/mL
same,DIZ,Pseudomonas aeruginosa,inactive
same,inhibition in vivo at 50 mg/kg,Rattus norvegicus [5],73%
same,inhibition in vivo at 50 mg/kg,Rattus norvegicus [6],75%
same,MIC,Staphylococcus aureus [7],> 128 µg/mL
same,inhibition in vivo at 50 mg/kg,Rattus norvegicus [8],29%
same,diameter of the inhibition zone (DIZ),Escherichia coli,inactive
